From US20030129193A1 (priority 2001, published 2003)

What was measured:
[1] = test system: cancer patients having progressive disease; details: human, in vivo; cited from earlier work
TNFα = details: cited from earlier work
[2] = test system: tissue factor on HUVEC cells; test: FACS analysis of tissue factor expression; format: cell-based, human; details: 6 h at 37°; TNFα 500 U/ml, LPS 10 μg/ml, VEGF 1 nM
Method: To analyze tissue factor expression on the surface of endothelial cells, HUVEC cells were incubated with TNFα (500 U/ml), LPS (10 μg/ml) or vascular endothelial growth factor (VEGF, 1 nM) alone or in combination for 6 h at 37°. Cells were then detached and stained for surface expression of human tissue factor with a sheep-anti-human tissue factor antibody (Haemochrom, Essen, Germany) and an appropriate FITC-conjugated secondary antibody. Fluorescent cells were detected on a flow cytometer (Becton Dickinson. San Jose, Calif.).

VCAM-1 = test: FACS for upregulation of VCAM-1; format: cell-based, mouse
Method: (§1) Mouse endothelial cells were seeded in 48 well tissue culture plates and allowed to adhere overnight. Cells were stimulated with TNFα at the following concentrations: 500 U/ml; 100 U/ml; 20 U/ml; 4 U/ml; 0.8 U/ml; 0.16 U/ml; and with medium only.
Endothelial cells were then investigated for upregulation of the adhesion molecule VCAM-1 by fluorescence activated cell stain (FACS). To this end, cells were stained with an antibody against murine VCAM-1, followed by an appropriate FITC-conjugated secondary antibody. Fluorescent cells were detected on a flow cytometer (Becton Dickinson. San Jose, Calif.).

Mouse endothelial cells = test: Cell based two stage coagulation assay
Method: as §1
Endothelial cells were also tested for coagulant activity in a cell based two stage coagulation assay. After incubation with TNFα, cells were washed and incubated with coagulation factor mix (0.5 μg/ml factor VIIa in a mix containing 2.8 μg/ml factor IX, 3.4 μg/ml factor X, 50 μM phospholipids, in calcium buffer). The supernatant of wells was transferred into a 96 well ELISA plate. Substrate S2765 was added and Factor Xa generation measured.

## NC(=O)c1nnn(Cc2cc(Cl)c(C(=O)c3ccc(Cl)cc3)c(Cl)c2)c1N [CAI, carboxyamidotriazole]
[1]
  disease stabilization, patients: 49%

## Cc1ccc2c(=O)c3cccc(CC(=O)O)c3oc2c1C [DMXAA]
TNFα
  effectiveness in inducing TNFα, less than endotoxin: 20 fold

## TNFα
[2]
  tissue factor expression on the surface of HUVEC: upregulated tissue factor expression
VCAM-1
  TNFα required for a measurable increase of VCAM-1 expression: 20 U/ml
Mouse endothelial cells
  dose lower than for VCAM-1 upregulation: 125 fold
Mouse endothelial cells; Factor Xa generation
  TNFα at which an increase versus negative control could be detected: 0,16 U/ml
